Test results as given in publication PMC9851200, “Multiparameter phenotypic screening for endogenous TFEB and TFE3 translocation identifies novel chemical series modulating lysosome function” (Autophagy, 2022).

Key:
Assay type in all cases: binding
[1] = target: T1, kinases (KINOMEscan panel) (Homo sapiens, UniProt P51813); details: BMX; NEW KINOMEscan
T1 sequence (P51813 1-675): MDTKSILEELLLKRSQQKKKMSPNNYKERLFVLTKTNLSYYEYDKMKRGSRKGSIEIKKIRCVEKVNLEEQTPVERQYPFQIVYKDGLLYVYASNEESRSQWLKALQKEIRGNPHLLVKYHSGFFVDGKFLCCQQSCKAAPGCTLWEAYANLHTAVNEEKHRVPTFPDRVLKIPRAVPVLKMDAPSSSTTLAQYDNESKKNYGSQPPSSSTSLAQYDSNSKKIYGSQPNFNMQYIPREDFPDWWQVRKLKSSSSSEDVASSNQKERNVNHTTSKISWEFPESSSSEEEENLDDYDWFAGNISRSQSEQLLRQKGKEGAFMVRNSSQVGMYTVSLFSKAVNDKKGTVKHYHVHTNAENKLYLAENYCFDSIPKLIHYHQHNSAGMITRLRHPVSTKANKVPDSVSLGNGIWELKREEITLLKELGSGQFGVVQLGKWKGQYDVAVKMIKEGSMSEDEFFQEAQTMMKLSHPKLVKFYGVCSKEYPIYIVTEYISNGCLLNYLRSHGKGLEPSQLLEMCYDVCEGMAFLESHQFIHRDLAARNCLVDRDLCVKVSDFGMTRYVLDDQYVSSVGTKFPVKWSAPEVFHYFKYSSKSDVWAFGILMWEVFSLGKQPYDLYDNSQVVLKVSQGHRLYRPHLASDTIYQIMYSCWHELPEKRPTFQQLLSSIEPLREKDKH

[2] = target: kinases (KINOMEscan panel) (Homo sapiens, UniProt Q16539)
Chain of kinases (KINOMEscan panel) (Homo sapiens, UniProt Q16539) (Q16539 whole entry): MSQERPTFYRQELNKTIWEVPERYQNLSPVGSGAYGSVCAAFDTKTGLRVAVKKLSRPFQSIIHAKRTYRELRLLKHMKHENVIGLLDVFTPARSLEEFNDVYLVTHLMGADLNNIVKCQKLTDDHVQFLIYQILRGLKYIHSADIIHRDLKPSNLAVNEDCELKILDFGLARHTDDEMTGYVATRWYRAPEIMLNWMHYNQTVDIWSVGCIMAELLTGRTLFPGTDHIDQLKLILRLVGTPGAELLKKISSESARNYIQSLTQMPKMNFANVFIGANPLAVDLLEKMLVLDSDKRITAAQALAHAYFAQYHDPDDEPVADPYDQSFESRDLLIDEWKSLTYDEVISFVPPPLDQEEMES

[3] = target: kinases (KINOMEscan panel) (Homo sapiens, UniProt P48736); details: kinase PIK3CG; NEW KINOMEscan
Chain of kinases (KINOMEscan panel) (Homo sapiens, UniProt P48736) (P48736 whole entry): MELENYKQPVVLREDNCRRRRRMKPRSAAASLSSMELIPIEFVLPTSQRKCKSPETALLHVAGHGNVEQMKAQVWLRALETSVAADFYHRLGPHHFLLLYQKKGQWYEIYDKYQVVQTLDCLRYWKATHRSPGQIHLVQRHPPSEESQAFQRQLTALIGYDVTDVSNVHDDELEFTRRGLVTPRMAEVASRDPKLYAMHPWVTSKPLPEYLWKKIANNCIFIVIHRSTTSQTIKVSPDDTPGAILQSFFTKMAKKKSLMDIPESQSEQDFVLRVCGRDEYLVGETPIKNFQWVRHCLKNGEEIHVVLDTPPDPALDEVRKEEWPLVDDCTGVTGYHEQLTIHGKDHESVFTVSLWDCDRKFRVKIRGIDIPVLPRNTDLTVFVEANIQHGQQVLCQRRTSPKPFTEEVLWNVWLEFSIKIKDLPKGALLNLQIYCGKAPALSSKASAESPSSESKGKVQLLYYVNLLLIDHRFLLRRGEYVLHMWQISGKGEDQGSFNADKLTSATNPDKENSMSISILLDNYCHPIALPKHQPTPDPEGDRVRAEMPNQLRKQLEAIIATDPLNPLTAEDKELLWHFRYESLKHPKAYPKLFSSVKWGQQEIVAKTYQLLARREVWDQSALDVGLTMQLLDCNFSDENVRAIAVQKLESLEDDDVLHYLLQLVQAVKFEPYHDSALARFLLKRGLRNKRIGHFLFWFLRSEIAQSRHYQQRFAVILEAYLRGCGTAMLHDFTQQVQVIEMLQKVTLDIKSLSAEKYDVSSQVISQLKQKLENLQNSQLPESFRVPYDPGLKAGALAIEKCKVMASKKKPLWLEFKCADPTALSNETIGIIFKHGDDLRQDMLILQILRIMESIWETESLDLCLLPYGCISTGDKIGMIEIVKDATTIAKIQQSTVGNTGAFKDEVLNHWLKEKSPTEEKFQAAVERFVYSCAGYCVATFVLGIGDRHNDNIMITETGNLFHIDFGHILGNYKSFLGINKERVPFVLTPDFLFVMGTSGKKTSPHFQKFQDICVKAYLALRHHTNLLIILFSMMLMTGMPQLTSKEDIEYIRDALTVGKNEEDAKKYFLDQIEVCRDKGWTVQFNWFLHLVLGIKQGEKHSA

[4] = target: T2, kinases (KINOMEscan panel) (Homo sapiens, UniProt Q9BRS2); details: RIOK1; NEW KINOMEscan
T2 sequence (Q9BRS2 1-568): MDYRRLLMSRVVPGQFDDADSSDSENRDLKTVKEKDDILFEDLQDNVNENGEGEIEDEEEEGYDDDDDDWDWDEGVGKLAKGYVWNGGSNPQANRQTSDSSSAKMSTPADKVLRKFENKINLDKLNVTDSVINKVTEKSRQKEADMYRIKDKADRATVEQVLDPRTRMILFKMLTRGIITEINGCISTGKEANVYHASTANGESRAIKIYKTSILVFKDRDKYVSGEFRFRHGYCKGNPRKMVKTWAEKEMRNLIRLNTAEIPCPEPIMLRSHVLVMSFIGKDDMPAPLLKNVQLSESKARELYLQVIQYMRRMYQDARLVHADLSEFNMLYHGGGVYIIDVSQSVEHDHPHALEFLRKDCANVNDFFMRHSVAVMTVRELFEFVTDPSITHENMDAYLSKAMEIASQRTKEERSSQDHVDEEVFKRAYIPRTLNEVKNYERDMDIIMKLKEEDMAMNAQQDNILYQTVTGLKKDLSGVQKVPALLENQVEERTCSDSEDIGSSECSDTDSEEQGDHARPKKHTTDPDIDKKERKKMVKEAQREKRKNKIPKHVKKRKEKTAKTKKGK

[5] = target: kinases (KINOMEscan panel) (Homo sapiens, UniProt P53355); details: kinase DAPK1; NEW KINOMEscan
Chain of kinases (KINOMEscan panel) (Homo sapiens, UniProt P53355) (P53355 whole entry): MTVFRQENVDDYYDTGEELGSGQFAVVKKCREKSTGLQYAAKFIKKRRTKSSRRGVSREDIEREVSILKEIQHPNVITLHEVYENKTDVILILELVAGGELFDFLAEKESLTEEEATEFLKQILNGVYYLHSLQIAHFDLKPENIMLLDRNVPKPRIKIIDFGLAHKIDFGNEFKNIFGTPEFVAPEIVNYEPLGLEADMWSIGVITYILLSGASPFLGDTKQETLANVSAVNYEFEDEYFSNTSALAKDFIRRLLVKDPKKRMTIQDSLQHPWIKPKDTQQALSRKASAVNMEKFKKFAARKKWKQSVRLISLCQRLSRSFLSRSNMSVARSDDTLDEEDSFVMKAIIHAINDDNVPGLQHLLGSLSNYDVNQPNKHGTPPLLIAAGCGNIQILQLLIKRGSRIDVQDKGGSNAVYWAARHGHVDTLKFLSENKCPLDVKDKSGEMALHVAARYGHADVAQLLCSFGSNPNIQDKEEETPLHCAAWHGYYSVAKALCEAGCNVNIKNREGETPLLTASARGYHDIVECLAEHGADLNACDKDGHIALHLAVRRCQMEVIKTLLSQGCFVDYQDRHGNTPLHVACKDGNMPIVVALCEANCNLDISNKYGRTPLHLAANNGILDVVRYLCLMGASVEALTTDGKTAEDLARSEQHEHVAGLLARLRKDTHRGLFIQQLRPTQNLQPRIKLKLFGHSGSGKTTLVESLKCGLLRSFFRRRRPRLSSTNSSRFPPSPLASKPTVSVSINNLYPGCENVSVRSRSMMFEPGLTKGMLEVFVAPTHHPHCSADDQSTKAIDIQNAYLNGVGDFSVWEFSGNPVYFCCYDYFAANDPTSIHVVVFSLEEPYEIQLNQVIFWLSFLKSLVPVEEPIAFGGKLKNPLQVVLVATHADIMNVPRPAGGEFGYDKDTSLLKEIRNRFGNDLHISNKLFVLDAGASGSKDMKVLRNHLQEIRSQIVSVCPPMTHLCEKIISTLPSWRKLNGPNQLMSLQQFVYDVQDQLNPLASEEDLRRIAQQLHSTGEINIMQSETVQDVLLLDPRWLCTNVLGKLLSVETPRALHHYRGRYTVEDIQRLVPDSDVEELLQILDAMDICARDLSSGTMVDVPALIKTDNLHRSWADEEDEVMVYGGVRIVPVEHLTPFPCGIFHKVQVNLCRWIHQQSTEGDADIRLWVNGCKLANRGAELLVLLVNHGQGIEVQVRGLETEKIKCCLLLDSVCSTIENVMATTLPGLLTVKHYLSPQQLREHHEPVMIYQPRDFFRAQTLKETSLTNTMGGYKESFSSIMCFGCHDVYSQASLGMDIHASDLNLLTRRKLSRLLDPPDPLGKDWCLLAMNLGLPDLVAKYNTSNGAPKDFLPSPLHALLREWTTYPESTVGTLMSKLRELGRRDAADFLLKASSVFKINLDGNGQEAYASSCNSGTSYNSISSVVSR

[6] = target: kinases (KINOMEscan panel) (Homo sapiens, UniProt P00533, L861Q); details: kinase EGFR(L861Q); NEW KINOMEscan
Chain of kinases (KINOMEscan panel) (Homo sapiens, UniProt P00533, L861Q) (P00533 25-1210 L861Q): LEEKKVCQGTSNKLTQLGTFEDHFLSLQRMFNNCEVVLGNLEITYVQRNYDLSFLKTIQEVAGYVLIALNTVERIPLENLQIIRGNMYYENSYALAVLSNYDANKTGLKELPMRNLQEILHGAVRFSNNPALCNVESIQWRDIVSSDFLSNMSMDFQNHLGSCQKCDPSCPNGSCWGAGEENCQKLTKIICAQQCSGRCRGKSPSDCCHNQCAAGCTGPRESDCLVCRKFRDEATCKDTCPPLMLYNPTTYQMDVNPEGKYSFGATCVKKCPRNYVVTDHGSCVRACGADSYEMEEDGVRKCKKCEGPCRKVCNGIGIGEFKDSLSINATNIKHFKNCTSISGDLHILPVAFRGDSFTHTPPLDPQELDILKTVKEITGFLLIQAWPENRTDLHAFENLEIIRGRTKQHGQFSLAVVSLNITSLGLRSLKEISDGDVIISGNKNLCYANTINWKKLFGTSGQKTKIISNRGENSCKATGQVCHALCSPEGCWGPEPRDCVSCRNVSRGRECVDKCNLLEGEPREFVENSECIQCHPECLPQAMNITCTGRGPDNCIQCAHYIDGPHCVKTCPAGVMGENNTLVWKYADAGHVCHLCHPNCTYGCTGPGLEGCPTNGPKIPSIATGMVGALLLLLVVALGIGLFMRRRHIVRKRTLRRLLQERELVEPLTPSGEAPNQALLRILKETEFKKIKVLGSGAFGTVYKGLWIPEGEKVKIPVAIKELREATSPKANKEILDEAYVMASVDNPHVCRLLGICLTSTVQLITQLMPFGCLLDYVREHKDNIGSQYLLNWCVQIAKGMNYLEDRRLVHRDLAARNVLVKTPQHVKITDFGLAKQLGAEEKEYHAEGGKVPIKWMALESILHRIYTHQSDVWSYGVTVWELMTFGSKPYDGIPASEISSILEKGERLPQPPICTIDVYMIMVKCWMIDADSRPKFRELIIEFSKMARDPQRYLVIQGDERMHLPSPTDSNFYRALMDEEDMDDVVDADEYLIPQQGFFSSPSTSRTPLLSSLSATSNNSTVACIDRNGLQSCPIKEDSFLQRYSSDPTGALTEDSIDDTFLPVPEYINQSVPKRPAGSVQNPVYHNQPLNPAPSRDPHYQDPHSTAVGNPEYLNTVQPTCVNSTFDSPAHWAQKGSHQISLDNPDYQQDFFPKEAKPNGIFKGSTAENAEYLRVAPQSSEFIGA

[7] = target: T3, kinases (KINOMEscan panel) (Homo sapiens, UniProt O76039); details: kinase CDKL5; NEW KINOMEscan
T3 sequence (O76039 1-960): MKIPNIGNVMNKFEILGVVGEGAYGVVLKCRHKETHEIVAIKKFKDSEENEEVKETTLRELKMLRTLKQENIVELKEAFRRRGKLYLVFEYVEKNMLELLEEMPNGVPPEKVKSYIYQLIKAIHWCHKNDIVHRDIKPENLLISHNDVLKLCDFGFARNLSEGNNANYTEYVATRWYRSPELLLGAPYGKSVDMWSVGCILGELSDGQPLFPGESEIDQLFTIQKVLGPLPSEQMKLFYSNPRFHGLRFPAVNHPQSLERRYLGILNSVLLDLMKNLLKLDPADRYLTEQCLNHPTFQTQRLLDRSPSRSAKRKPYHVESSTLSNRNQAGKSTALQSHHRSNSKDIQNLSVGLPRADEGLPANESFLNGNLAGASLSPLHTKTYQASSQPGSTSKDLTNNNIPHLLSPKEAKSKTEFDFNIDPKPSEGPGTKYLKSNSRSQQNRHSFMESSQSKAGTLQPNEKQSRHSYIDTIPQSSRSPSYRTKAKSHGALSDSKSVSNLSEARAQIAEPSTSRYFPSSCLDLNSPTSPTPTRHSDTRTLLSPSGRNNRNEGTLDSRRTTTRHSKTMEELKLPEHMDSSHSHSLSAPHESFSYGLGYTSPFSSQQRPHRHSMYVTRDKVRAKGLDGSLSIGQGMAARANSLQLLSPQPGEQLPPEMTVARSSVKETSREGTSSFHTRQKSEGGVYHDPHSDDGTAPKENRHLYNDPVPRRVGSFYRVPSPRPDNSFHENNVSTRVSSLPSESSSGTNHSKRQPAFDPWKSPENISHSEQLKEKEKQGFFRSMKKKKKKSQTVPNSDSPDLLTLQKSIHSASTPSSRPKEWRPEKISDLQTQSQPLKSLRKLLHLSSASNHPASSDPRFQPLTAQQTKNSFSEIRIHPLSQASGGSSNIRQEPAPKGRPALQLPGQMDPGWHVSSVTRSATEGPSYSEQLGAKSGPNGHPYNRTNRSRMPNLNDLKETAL

[8] = target: kinases (KINOMEscan panel) (Homo sapiens, UniProt Q9HBH9); details: MKNK2; NEW KINOMEscan
Chain of kinases (KINOMEscan panel) (Homo sapiens, UniProt Q9HBH9) (Q9HBH9 whole entry): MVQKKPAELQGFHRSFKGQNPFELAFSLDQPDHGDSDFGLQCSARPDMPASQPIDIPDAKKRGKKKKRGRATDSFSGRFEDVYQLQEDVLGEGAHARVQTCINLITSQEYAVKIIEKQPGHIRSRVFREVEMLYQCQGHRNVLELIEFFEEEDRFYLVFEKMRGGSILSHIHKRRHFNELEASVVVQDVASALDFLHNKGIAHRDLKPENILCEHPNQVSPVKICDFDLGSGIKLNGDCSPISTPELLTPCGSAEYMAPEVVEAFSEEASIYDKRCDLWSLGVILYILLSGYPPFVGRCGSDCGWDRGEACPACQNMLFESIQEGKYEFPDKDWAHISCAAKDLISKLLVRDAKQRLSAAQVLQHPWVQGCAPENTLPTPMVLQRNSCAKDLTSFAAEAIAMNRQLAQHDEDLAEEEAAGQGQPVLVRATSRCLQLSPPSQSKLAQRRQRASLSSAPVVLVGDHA

[9] = target: kinases (KINOMEscan panel) (Homo sapiens, UniProt P11802); details: NEW KINOMEscan; for KINOMEscan CDK4-cyclinD3: kinase CDK4-cyclinD3; for KINOMEscan CDK4: kinase CDK4
Chain of kinases (KINOMEscan panel) (Homo sapiens, UniProt P11802) (P11802 whole entry): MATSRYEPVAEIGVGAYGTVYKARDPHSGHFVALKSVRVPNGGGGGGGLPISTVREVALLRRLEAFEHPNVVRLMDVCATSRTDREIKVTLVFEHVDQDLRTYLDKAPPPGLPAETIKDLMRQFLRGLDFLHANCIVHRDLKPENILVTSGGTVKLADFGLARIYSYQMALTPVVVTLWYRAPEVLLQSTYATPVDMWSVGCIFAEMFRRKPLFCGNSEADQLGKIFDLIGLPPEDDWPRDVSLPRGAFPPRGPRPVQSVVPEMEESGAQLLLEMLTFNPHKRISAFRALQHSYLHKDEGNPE

| SMILES | KINOMEscan BMX [1] | KINOMEscan MAPK14/p38-alpha [2] | KINOMEscan PIK3CG [3] | KINOMEscan RIOK1 [4] | KINOMEscan DAPK1 [5] | KINOMEscan EGFR(L861Q) [6] | KINOMEscan CDKL5 [7] | KINOMEscan MKNK2 [8] | KINOMEscan CDK4-cyclinD1 (???) CCND1 [9] | KINOMEscan CDK4-cyclinD3 [9] | KINOMEscan CDK4 [9] |
| --- | --- | --- | --- | --- | --- | --- | --- | --- | --- | --- | --- |
| Cc1cccc(-c2nc(Nc3ccc4nn(C)cc4c3)c3ccccc3n2)n1 [NK167] | 0 | 5 | 0 | 1 | 0 | 0 | 0 | 0 | 10 | 0 | 0 |
| Cc1cccc(-c2nc(N(C)c3ccc4ncsc4c3)c3ccccc3n2)n1 [NK-161] | 6 | 8 | 8 | 0 | 0 | 0 | 3 | 0 | 18 | 0 | 0 |
